Test [1] concerns Staphylococcus aureus. Kind of test: Antibacterial activity against methicillin-resistant Staphylococcus aureus ATCC BAA-41 after 18 hrs by broth microdilution method. The test is classed as functional. The following applies: ATCC BAA-41, 18 h.
The next test relates to Klebsiella pneumoniae. As to the kind of experiment: Antibacterial activity against Klebsiella pneumoniae ATCC BAA-1144 after 18 hrs by broth microdilution method. The test is classed as functional. The following applies: ATCC BAA-1144, 18 h.
The test system of another test is Enterococcus faecalis. Kind of test: Antimicrobial activity against vancomycin-sensitive Enterococcus faecalis after 18 hrs by broth microdilution method. The test is classed as functional.
Test [2] has as its system Staphylococcus aureus. As to the kind of experiment: Antibacterial activity against methicillin-sensitive Staphylococcus aureus after 18 hrs by broth microdilution method. The format is functional.
The subject of test [3] is Escherichia coli. Kind of test: Antibacterial activity against Escherichia coli ATCC 25922 after 18 hrs by broth microdilution method. The test is classed as functional. The following applies: ATCC 25922, 18 h.
In a further test the test system is Bacillus subtilis. Kind of test: Antibacterial activity against Bacillus subtilis. The test is classed as functional.
Test [4] can be described thus: Inhibition of Escherichia coli FtsZ polymerization expressed in Escherichia coli BL21 assessed as reduction in light scattering intensity in presence of GTP by fluorescence spectrometric analysis.
A short description of test [5]: Inhibition of Escherichia coli FtsZ GTPase activity expressed in Escherichia coli BL21 preincubated for 5 mins followed by GTP addition after 15 mins by malachite green based spectrophotometric analysis.
The test system of test [6] is Mycobacterium tuberculosis. As to the kind of experiment: Antimycobacterial activity against Mycobacterium tuberculosis H37Rv after 2 weeks. The test is classed as functional. The following applies: 336 h.
The test system of test [7] is Staphylococcus aureus. As to the kind of experiment: Antibacterial activity against Staphylococcus aureus ATCC 29213 after 18 hrs by broth microdilution assay. The format is functional. The following applies: ATCC 29213, 18 h.
In test [8] the test system is Escherichia coli. As to the kind of experiment: Antibacterial activity against Escherichia coli ATCC 25922 after 18 hrs by broth microdilution assay. The format is functional. The following applies: ATCC 25922, 18 h.
The target of test [9] is T1, Cell division protein FtsZ (Staphylococcus aureus, UniProt P0A031).
T1 sequence (P0A031 whole entry): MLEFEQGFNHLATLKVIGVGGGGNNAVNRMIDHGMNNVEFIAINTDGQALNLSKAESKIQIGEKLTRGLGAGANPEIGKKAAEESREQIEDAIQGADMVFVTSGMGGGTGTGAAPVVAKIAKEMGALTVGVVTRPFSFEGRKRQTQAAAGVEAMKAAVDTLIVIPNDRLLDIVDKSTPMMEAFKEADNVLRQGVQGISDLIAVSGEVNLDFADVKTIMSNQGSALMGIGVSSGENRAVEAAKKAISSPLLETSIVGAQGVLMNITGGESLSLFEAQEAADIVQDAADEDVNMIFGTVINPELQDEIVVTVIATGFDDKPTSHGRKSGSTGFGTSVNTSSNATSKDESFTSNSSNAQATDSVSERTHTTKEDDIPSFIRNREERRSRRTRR
Kind of test: Inhibition of Staphylococcus aureus ATCC 29213 N-terminal His6-tagged FtsZ GTPase activity expressed in Escherichia coli BL21(DE3) assessed as reduction in inorganic phosphate release preincubated for 10 mins followed by GTP addition after 30 mins.

Test [10] has as its system Mycobacterium tuberculosis. Kind of test: Antibacterial activity against Mycobacterium tuberculosis NHN382 clinical isolates measured every 24 hrs for 7 days by MABA assay. The format is functional.
Test [11] relates to Mycobacterium tuberculosis. As to the kind of experiment: Antibacterial activity against Mycobacterium tuberculosis W210 clinical isolates measured every 24 hrs for 7 days by MABA assay. The format is functional.
For test [12], the system named is Mycobacterium tuberculosis. Kind of test: Antibacterial activity against Mycobacterium tuberculosis TN587 clinical isolates measured every 24 hrs for 7 days by MABA assay. The format is functional.
For test [13], the system named is Mycobacterium tuberculosis. As to the kind of experiment: Antibacterial activity against Mycobacterium tuberculosis H37Rv measured every 24 hrs for 7 days by MABA assay. The test is classed as functional.

The structures appear in SMILES notation. Converted amounts (≈) assume the structure as drawn.

For the molecule `O=c1ccc2ccccc2o1` [COUMARIN], the minimum inhibitory concentration (MIC) in the test with Staphylococcus aureus [1] fell in the range of 2 to 8 µg/mL (≈ 13.7 to 54.7 µM); in the test with Klebsiella pneumoniae it was 32 to 128 µg/mL (≈ 219 to 876 µM); with Enterococcus faecalis, 4 to 16 µg/mL (≈ 27.4 to 109 µM); in the test on Staphylococcus aureus [2], 2 to 8 µg/mL (≈ 13.7 to 54.7 µM); against Escherichia coli [3], 32 to 128 µg/mL (≈ 219 to 876 µM).
As for `O=C(Oc1cc(OC(=O)c2ccc(O)c(Cl)c2)c2ccccc2c1)c1ccc(O)c(Cl)c1`, the MIC against Bacillus subtilis is 13 µM (≈ 6.1 µg/mL).
Consider `O=C(/C=C/c1ccc(O)c(O)c1)O[C@@H]1C[C@](O)(C(=O)O)C[C@@H](O)[C@H]1O` [CHLOROGENIC ACID], for which the minimum inhibitory concentration (MIC) was 2 to 8 µg/mL (≈ 5.64 to 22.6 µM) against Staphylococcus aureus [1]; 32 to 128 µg/mL (≈ 90.3 to 361 µM) with Klebsiella pneumoniae; 4 to 16 µg/mL (≈ 11.3 to 45.2 µM) in the test with Enterococcus faecalis; 2 to 8 µg/mL (≈ 5.64 to 22.6 µM) in the test on Staphylococcus aureus [2]; 32 to 128 µg/mL (≈ 90.3 to 361 µM) in the test with Escherichia coli [3]. For the same molecule, in test [4], the IC50 was determined as 69.5 µM.
Regarding `Oc1ccc(/C=C/c2cc(O)cc(O)c2)cc1` [RESVERATROL], the MIC lay in the range of 2 to 8 µg/mL (≈ 8.76 to 35 µM) with Staphylococcus aureus [1]; 32 to 128 µg/mL (≈ 140 to 561 µM) in the test on Klebsiella pneumoniae; 4 to 16 µg/mL (≈ 17.5 to 70.1 µM) against Enterococcus faecalis; 2 to 8 µg/mL (≈ 8.76 to 35 µM) against Staphylococcus aureus [2]; 32 to 128 µg/mL (≈ 140 to 561 µM) in the test with Escherichia coli [3].
Turning to `O=C(O)/C=C/c1ccc(O)c(O)c1` [CAFFEIC ACID], the minimum inhibitory concentration (MIC) against Staphylococcus aureus [1] fell in the range of 2 to 8 µg/mL (≈ 11.1 to 44.4 µM); against Klebsiella pneumoniae, 32 to 128 µg/mL (≈ 178 to 710 µM); in the test with Enterococcus faecalis, 4 to 16 µg/mL (≈ 22.2 to 88.8 µM); against Staphylococcus aureus [2], 2 to 8 µg/mL (≈ 11.1 to 44.4 µM); in the test with Escherichia coli [3] it was 32 to 128 µg/mL (≈ 178 to 710 µM). Also, the IC50 in test [4] was 106 µM.
Consider `COc1cc2ccc(=O)oc2cc1O` [SCOPOLETIN], for which the MIC against Staphylococcus aureus [1] is 2 to 8 µg/mL (≈ 10.4 to 41.6 µM); in the test with Klebsiella pneumoniae, 32 to 128 µg/mL (≈ 167 to 666 µM); with Enterococcus faecalis, 4 to 16 µg/mL (≈ 20.8 to 83.3 µM); in the test on Staphylococcus aureus [2], 2 to 8 µg/mL (≈ 10.4 to 41.6 µM); against Escherichia coli [3], 32 to 128 µg/mL (≈ 167 to 666 µM); in test [6], 42 µg/mL (≈ 219 µM). Moreover, the half-maximal inhibitory concentration (IC50) in [5] is 23 µM; in test [4], 41 µM.
Consider `CC(C)(C)c1ccc(-c2ncnc3c(CNC(=N)N)cccc23)cc1`, for which the results for the minimal inhibitory concentration (MIC) with Staphylococcus aureus [7] and against Escherichia coli [8] were 449 µM (≈ 150 µg/mL) and 897 µM (≈ 299 µg/mL), respectively. The IC50 in test [9] amounted to 317 µM.
In the case of `CCCCOC(=O)Nc1cc2nc(C3CCCCC3)[nH]c2cc1N1CCCC1`, the MIC99 in [10] stood at 0.31 µg/mL (≈ 0.806 µM); in test [11] it was 0.63 µg/mL (≈ 1.64 µM); in [12], 0.16 µg/mL (≈ 0.416 µM); in test [13], 0.39 µg/mL (≈ 1.01 µM).
For the molecule `Cc1nc2ccccc2n1C(=O)/C=C/c1ccc(Cl)cc1Cl`, the MIC in the test with Staphylococcus aureus [1] was in the range of 2 to 8 µg/mL (≈ 6.04 to 24.2 µM); against Klebsiella pneumoniae it was 32 to 128 µg/mL (≈ 96.6 to 386 µM); with Enterococcus faecalis, 4 to 16 µg/mL (≈ 12.1 to 48.3 µM); in the test on Staphylococcus aureus [2], 2 to 8 µg/mL (≈ 6.04 to 24.2 µM); against Escherichia coli [3] it was 32 to 128 µg/mL (≈ 96.6 to 386 µM).
For the molecule `O=C(O)/C=C/c1ccccc1` [CINNAMIC ACID], the minimum inhibitory concentration (MIC) was in the range of 2 to 8 µg/mL (≈ 13.5 to 54 µM) against Staphylococcus aureus [1]; 32 to 128 µg/mL (≈ 216 to 864 µM) against Klebsiella pneumoniae; 4 to 16 µg/mL (≈ 27 to 108 µM) in the test with Enterococcus faecalis; 2 to 8 µg/mL (≈ 13.5 to 54 µM) with Staphylococcus aureus [2]; 32 to 128 µg/mL (≈ 216 to 864 µM) in the test with Escherichia coli [3]. The IC50 in test [4] worked out at 239 µM.
`O=c1ccc2ccc(O)cc2o1` [UMBELLIFERONE] had an MIC in test [6] of 58 µg/mL (≈ 358 µM).
Same read-out and setting: the value for `O=c1ccc2cc(CCO)c(O)cc2o1` was 60 µg/mL (≈ 291 µM).
With `Cc1nc2ccccc2n1C(=O)/C=C/c1ccc(F)cc1`, the minimum inhibitory concentration (MIC) was in the range of 2 to 8 µg/mL (≈ 7.14 to 28.5 µM) against Staphylococcus aureus [1]; 32 to 128 µg/mL (≈ 114 to 457 µM) in the test on Klebsiella pneumoniae; 4 to 16 µg/mL (≈ 14.3 to 57.1 µM) in the test with Enterococcus faecalis; 2 to 8 µg/mL (≈ 7.14 to 28.5 µM) against Staphylococcus aureus [2]; 32 to 128 µg/mL (≈ 114 to 457 µM) in the test on Escherichia coli [3].
On to `Oc1cc(O)c2c(c1)C/C(Cl)=C\Cc1cc(c(Cl)cc1O)Oc1c(O)cc(cc1O)C/C(Cl)=C\Cc1cc(c(Cl)cc1O)O2`, for which the minimal inhibitory concentration (MIC) is 2 to 8 µg/mL (≈ 2.95 to 11.8 µM) in the test on Staphylococcus aureus [1]; 32 to 128 µg/mL (≈ 47.2 to 189 µM) with Klebsiella pneumoniae; 4 to 16 µg/mL (≈ 5.9 to 23.6 µM) against Enterococcus faecalis; 2 to 8 µg/mL (≈ 2.95 to 11.8 µM) against Staphylococcus aureus [2]; 32 to 128 µg/mL (≈ 47.2 to 189 µM) with Escherichia coli [3].
Take `CCC(CC)c1cc([C@H]2CN3CC[C@H]2C[C@@H]3CN)nc(-c2ccncc2)n1`: the MIC in the test with Staphylococcus aureus [7] was found to be 24.6 µM (≈ 8.99 µg/mL); in the test with Escherichia coli [8] it was 49.6 µM (≈ 18.1 µg/mL). In addition, the half-inhibitory concentration (IC50) in test [9] is 37.5 µM.

These data come from ChEMBL document CHEMBL3865781, “Recent advances in the discovery and development of antibacterial agents targeting the cell-division protein FtsZ” (Bioorg Med Chem, 2016).
